# Laboratory results reported in BindingDB's records for patent US20250346600 (Moma Therapeutics, 2025).
# What was measured:
# [1] = molecular target: T1, Bifunctional 3'-5' exonuclease/ATP-dependent helicase WRN [2-1432] (UniProt Q14191); experiment: WRN activity Format A
# T1 construct: 2-1432
# Protocol: Full length WRN protein (aa 2-1432) (production described separately) was used for the biochemical activity assays. The 39-mer ssDNA “C6.18” ([…]) was purchased from IDT and used as a substrate. Quantification of ATP hydrolysis was evaluated using the ADP-Glo assay kit (Promega, Madison, WI). An enzyme titration time-course was performed to determine the optimal assay conditions. […] To evaluate the inhibitory effects of the compounds, 11-point 3-fold serial dilutions were prepared in DMSO.50nL of each concentration in duplicate was preincubated for 30 minutes in a 384-well microplate (Greiner #784075) with 5μL of 0.5nM WRN in assay buffer. The reaction was initiated by adding 5μL of 200nM C6.18 DNA with 20μM ATP and was allowed to proceed for 30 minutes at room temperature. The reaction was stopped with 10μL ADP-Glo reagent for 1 hour to remove unreacted ATP. Lastly, 20μL ATP detection reagent was added and incubated for 1 hour to generate the luminescence signal. Control wells included “high controls” with no inhibition (DMSO, no compound) and “low controls” with maximum inhibition (no WRN). Luminescence was recorded on a PHERAstar (BMG Labtech, Ortenberg, Germany). Data was fit using the “Smart Fit” method within the Genedata Screener Software (Basel, Switzerland) to obtain IC50 values using four-parameter fits. Reported IC50s are the geometric means of at least two independent trials.
# [2] = molecular target: T1, Bifunctional 3'-5' exonuclease/ATP-dependent helicase WRN [2-1432]; experiment: WRN activity Format B
# Protocol: The 39-mer ssDNA “C6.18” ([…]) was purchased from IDT and used as a substrate. Quantification of ATP hydrolysis was evaluated using the ADP-Glo assay kit (Promega, Madison, WI). An enzyme titration time-course was performed to determine the optimal assay conditions. […] Data was fit using the “Smart Fit” method within the Genedata Screener Software (Basel, Switzerland) to obtain IC50 values using four-parameter fits. Reported IC50s are the geometric means of at least two independent trials.
# T1 sequence (Q14191 2-1432): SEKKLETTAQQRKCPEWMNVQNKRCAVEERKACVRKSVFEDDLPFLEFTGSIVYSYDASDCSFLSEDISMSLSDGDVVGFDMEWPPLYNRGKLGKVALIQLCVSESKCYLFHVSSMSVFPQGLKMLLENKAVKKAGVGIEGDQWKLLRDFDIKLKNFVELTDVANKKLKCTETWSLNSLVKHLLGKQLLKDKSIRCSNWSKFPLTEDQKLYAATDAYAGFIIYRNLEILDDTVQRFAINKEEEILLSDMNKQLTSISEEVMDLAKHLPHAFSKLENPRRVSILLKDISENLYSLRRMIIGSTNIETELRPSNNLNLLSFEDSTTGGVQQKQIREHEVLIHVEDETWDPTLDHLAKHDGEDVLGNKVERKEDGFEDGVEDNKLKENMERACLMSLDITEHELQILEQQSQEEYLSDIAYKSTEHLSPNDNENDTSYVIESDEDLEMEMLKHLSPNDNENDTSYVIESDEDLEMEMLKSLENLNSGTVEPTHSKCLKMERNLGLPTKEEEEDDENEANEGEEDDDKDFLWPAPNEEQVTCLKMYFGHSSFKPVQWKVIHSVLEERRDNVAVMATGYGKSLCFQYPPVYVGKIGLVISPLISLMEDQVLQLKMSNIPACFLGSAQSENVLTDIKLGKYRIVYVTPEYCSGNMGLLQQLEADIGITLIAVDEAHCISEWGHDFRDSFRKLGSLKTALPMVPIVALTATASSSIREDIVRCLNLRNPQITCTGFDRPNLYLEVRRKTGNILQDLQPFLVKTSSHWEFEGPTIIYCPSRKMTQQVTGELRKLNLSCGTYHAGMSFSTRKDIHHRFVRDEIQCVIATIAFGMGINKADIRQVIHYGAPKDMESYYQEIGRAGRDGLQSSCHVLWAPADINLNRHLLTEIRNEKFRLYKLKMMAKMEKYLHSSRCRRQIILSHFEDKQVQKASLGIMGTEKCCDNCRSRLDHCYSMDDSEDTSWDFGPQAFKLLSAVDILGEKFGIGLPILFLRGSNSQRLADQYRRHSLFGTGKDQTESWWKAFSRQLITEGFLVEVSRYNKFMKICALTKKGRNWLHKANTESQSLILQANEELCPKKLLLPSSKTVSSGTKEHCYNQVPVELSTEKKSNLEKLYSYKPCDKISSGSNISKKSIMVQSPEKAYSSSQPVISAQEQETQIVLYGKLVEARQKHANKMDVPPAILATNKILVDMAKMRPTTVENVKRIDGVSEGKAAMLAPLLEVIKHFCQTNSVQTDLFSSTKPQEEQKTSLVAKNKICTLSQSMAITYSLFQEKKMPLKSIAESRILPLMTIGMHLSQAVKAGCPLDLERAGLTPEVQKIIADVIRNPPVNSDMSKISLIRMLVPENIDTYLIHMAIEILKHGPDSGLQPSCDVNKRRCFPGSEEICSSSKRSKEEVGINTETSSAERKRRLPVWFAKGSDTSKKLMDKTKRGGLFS
IC50 [1],IC50 [2],Compound
in the range around 35 nM,–,"C=CC(=O)N1CCc2nn(-c3ccc(C4CC4)cc3)c3c2C(C1)N(C(=O)C1=CN=C2N=C(C(F)(F)F)N=C2C1)CC3 (stereo not drawn) [US20250346600, Compound 124]"
< 1.5 nM,in the range around 35 nM,"C=CC(=O)N1CCOc2nn(-c3ccc(C4CCC4)cc3O)c3c2C(C1)N(C(=O)C1=CC2=NN=C(Br)C2=CC1)CC3 (stereo not drawn) [US20250346600, Compound 40]"
